In patent publication US4992469A, “Method of obtaining an antiplatelet effect” (Eisai Co., Ltd., priority 1984, dated 1991):
Read-outs that look alike come from different tables or passages of the source.

Experiments:
Phospholipase A2 = Phospholipase A2 inhibition (myristic acid liberated from myristyllecithin, HPLC); assay type: biochemical
Experimental: Prior to the determination of the activity of phospholipase A by determining myristic acid liberated from a substrate (myristyllecithin) by said enzyme by high-performance liquid chromatography, the following test compounds were added in amounts as shown in Table 1 to examine the effects thereof.
CoQ10 was employed for the purpose of comparison. [drawing 17]
Each value in Table 1 represents the evaluation of the corresponding compound assuming the value of a physiological saline solution as 100 and indicates the phospholipase A2 inhibition activity thereof.

human platelets = assay: Repression of human platelet agglutination in vitro (PRP; PAF, collagen or ADP as inducer); assay type: cell-based; conditions: for inhibition at 50 µM: test compound 50 μM; for inhibition at 100 µM: test compound 100 μM; for inhibition at 200 µM: test compound 200 μM; for inhibition at 20 µM: test compound 20 μM
Experimental: Effects of repressing human platelet agglutination of the compounds of the present invention were examined in vitro. Platelet agglutination test was carried out in the following manner with the use of PAF (platelet activating factor; 1-alkyl-2-acetyl-sn-glycero-3-phosphocholine), collagen and ADP as inducers.
Blood was collected from the venae brachiales of a healthy adult in an amount of nine parts by volume to one part by volume of a 3.8% sodium citrate solution. The blood was centrifuged at 100 ×g for eight min and PRP separated as the supernatant was collected.
To 0.2 ml of the PRP as prepared above, 25 μl portions of test solutions in various concentrations were added and each mixture was incubated at 37° C. for three min. 25 μl of the abovementioned inducer solution was added thereto to induce agglutination. PAF, collagen and ADP were added as inducers to the final concentrations of 100 ng/ml, 1 μg/ml and 5 μM, respectively. Platelet agglutination was determined with an aggregometer (a product of Niko Bioscience Co., Ltd.) by the method of Mustard et al. (cf. Mustard, J.F., Hegaldt, B., Rosewell, H.C., MacMillan, R.C., J. Lab. Clin. Med., 64, 548-559 (1964)). The repressing effect of each test compound was evaluated as the repression ratio with the use of PRP containing vehicle as control.
(3) The following compounds were tested. Compounds A to D are as defined in Experimental Example 1. [drawing 18]
Each figure in Table 2 represents the repression ratio (%) of the corresponding compound.

[1] = inducer ADP 5 μM, read-out: repression ratio of platelet agglutination, ADP
[2] = inducer PAF 100 ng/ml, read-out: repression ratio of platelet agglutination, PAF
[3] = inducer collagen 1 μg/ml, read-out: repression ratio of platelet agglutination, Collagen

Row | Compound | Phospholipase A activity (physiological saline = 100) (Phospholipase A2; final concentration 4 μM) | inhibition at 50 µM (human platelets; [1]) | inhibition at 100 µM (human platelets; [1]) | inhibition at 200 µM (human platelets; [1]) | inhibition at 20 µM (human platelets; [2]) | inhibition at 50 µM (human platelets; [2]) | inhibition at 100 µM (human platelets; [2]) | inhibition at 200 µM (human platelets; [2]) | inhibition at 20 µM (human platelets; [3]) | inhibition at 100 µM (human platelets; [3]) | Phospholipase A activity (physiological saline = 100) (Phospholipase A2; final concentration 43 μM) | inhibition at 20 µM (human platelets; [1])
1 | COc1c(O)c(C)c(C/C=C(\C)CC/C=C(\C)CC/C=C(\C)C(=O)O)c(OC)c1OC [Compound D] | 24% | 9% | 13.5% | 21.3% | 4.5% | 23.8% | 26% | 51.5% | 2.8% | 39.3% |  | 
2 | COc1c(O)c(C)c(C/C=C(\C)CC/C=C(\C)CC/C=C(\C)CC/C=C(\C)CC/C=C(\C)C(=O)O)c(OC)c1OC [Compound F] |  |  | 6.7% | 26.3% |  | 5.9% | 9.3% | 49% | 5% | 15.8% |  | 
3 | COC1=C(OC)C(=O)C(C/C=C(\C)CC/C=C(\C)CC/C=C(\C)CC/C=C(\C)CC/C=C(\C)CC/C=C(\C)C(=O)O)=C(C)C1=O [Compound J] |  | 16.5% | 27.1% | 30.1% | 6% | 2.7% | 24.9% | 65.3% |  | 22% |  | 
4 | COC1=C(OC)C(=O)C(C/C=C(\C)CC/C=C(\C)CC/C=C(\C)CC/C=C(\C)CC/C=C(\C)C(=O)O)=C(C)C1=O [Compound I] |  |  | 3.9% | 22% | 2.8% | 3.9% | 10.8% | 53.3% |  | 24.1% |  | 
5 | COC1=C(OC)C(=O)C(C/C=C(\C)CC/C=C(\C)CC/C=C(\C)CC/C=C(\C)CC/C=C(\C)CC/C=C(\C)CC/C=C(\C)CC/C=C(\C)CC/C=C(\C)CCC=C(C)C)=C(C)C1=O [CoQ10, Ubidecarenone, reference compound] |  |  | 8.7% | 11.3% | 8% |  | 16.2% | 19% | 6.5% | 18.7% | 56% | 
6 | COC1=C(OC)C(=O)C(C/C=C(\C)CC/C=C(\C)CC/C=C(\C)C(=O)O)=C(C)C1=O [Compound C] | 25% |  |  | 18.3% | 3.5% | 3.4% | 12.2% | 47.3% | 3.2% | 17.2% |  | 
7 | COc1c(O)c(C)c(C/C=C(\C)CC/C=C(\C)C(=O)O)c(OC)c1OC [Compound E] |  |  | 10.7% | 23% | 3.03% | 28.1% | 32.5% | 45.4% | 45.4% | 75.8% |  | 
8 | COC1=C(OC)C(=O)C(C/C=C(\C)CC/C=C(\C)C(=O)O)=C(C)C1=O [Compound H] |  |  | 8.8% | 18.2% | 8.8% | 28.2% | 37.8% | 47.3% | 38.1% | 84.3% |  | 
9 | COC1=C(OC)C(=O)C(C/C=C(\C)CC/C=C(\C)CC/C=C(\C)CC/C=C(\C)C(=O)O)=C(C)C1=O [Compound A] | 66% | 2.1% | 22.1% | 23.1% | 27.8% | 36% | 42.6% | 52.9% | 62.4% | 86.6% |  | 12.4%
10 | COc1c(O)c(C)c(C/C=C(\C)CC/C=C(\C)CC/C=C(\C)CC/C=C(\C)CC/C=C(\C)CC/C=C(\C)C(=O)O)c(OC)c1OC [Compound G] |  |  | 14% | 23.1% |  | 8.1% | 12.8% | 59.8% |  | 30.2% |  | 
11 | COc1c(O)c(C)c(C/C=C(\C)CC/C=C(\C)CC/C=C(\C)CC/C=C(\C)C(=O)O)c(OC)c1OC [Compound B] | 55% | 24.8% | 21.5% | 24.2% | 21.6% | 36.8% | 38.4% | 51.6% | 21.4% | 69.6% |  | 12.9%
